{"source": "paper PMC6410202", "about": "“Dual Action of the PN159/KLAL/MAP Peptide: Increase of Drug Penetration across Caco-2 Intestinal Barrier Model by Modulation of Tight Junctions and Plasma Membrane Permeability” (Pharmaceutics, 2019)", "key": {"[1]": {"system": "Enterobacter cloacae spp. cloacae (ATCC 13047)", "assay": "microbe, parasite or virus in culture", "details": "Enterobacter cloacae, ATCC13047, 18 h", "experimental": "(§1) The MIC of PN159 on the 6 sensitive and resistant ESKAPE pathogenic strains was determined in cation-adjusted Muller–Hinton broth. […] Minimum inhibitory concentrations (MICs) were determined by using a standard serial broth dilution technique. Briefly, 11-step serial dilutions were prepared in 96-well microtiter plates with three biological replicates per strain. Pathogens were inoculated into each well at a density of 5×10^5 bacteria/mL, and the plates were incubated at 37 °C. Plates were shaken at 300 rpm during incubation for 18 h. Cell growth was monitored by measuring the optical density (OD600 value, Synergy 2 microplate reader BioTek Instruments Inc, Winooski, VT, USA). […] As reference compounds we tested the antimicrobial activity of three bactericidal drugs with different modes of action."}, "[2]": {"system": "Pseudomonas aeruginosa (ATCC 27853)", "assay": "microbe, parasite or virus in culture", "details": "Pseudomonas aeruginosa, ATCC27853, 18 h", "experimental": "as §1"}, "[3]": {"system": "Enterococcus faecium (ATCC 700221)", "assay": "MIC, serial broth dilution", "assay_type": "cell-based", "details": "ATCC700221, Brain-Heart-Infusion broth, 18 h, vancomycin resistant strain", "experimental": "as §1"}, "[4]": {"system": "Klebsiella pneumoniae (ATCC 10031)", "assay": "MIC, serial broth dilution", "assay_type": "cell-based", "details": "ATCC10031, Muller–Hinton broth, 18 h", "experimental": "as §1"}, "[5]": {"system": "Acinetobacter baumannii (ATCC 17978)", "assay": "MIC, serial broth dilution", "assay_type": "cell-based", "details": "ATCC17978, Muller–Hinton broth, 18 h", "experimental": "as §1"}, "[6]": {"system": "Staphylococcus aureus (ATCC 29213)", "assay": "MIC, serial broth dilution", "assay_type": "cell-based", "details": "ATCC29213, Muller–Hinton broth, 18 h", "experimental": "as §1"}, "Caco-2 cells": {"system": "Caco-2 cells", "assay": "Impedance measurement (RTCA), Caco-2 cells", "assay_type": "cell-based", "details": "CPPs 100 μM, 24-h monitoring", "experimental": "Kinetics of epithelial cell reaction to PN159 peptide treatment was monitored by impedance measurement at 10 kHz (RTCA-SP instrument, ACEA Biosciences, San Diego, CA, USA). Impedance measurement is non-invasive, label-free and real time, and linearly correlates with adherence, growth, number and viability of cells. For background measurements 50 μL cell culture medium was added to the wells, then cells were seeded at a density of 6 × 10^3 cells/well to the coated 96-well plates with integrated gold electrodes (E-plate 96, ACEA Biosciences). Cells were cultured for 5–7 days in a CO2 incubator at 37 °C and monitored every 10 min until the end of experiments. Cells were treated with PN159 peptide solutions at 1, 3, 10, 30 and 100 μM concentrations at the beginning of the plateau phase of growth and the effects were followed for 1-h or 24 h. To measure cell recovery, peptide solutions were changed to culture medium and the impedance was monitored for one week. Culture medium was changed every 2 days. Caco-2 cells were also treated with the three selected CPPs, Pep-1, R8 and φ-peptide, at 100 μM concentrations at the beginning of the plateau phase of cell growth for 24-h. Triton X-100 detergent (1 mg/mL) was used as a reference compound to induce cell death. Cell index was defined as Rn-Rb at each time point of measurement, where Rn is the cell-electrode impedance of the well when it contains cells and Rb is the background impedance of the well with the medium alone."}, "in vitro": {"assay": "in vitro", "details": "human, Caco-2, Papp A-B", "experimental": "(§2) In the permeability experiments inserts with Caco-2 cell layers grown for 3 weeks were transferred to 12-well plates containing 1.5 mL Ringer–Hepes buffer in the lower (basal or acceptor) compartments. In the upper or apical compartments culture medium was replaced by 0.5 mL buffer containing peptide solutions: PN159 peptide at 1, 3, 10 and 30 μM concentrations and CPPs at 100 μM concentration. […] The incubation with permeability markers in the presence of PN159 peptide lasted for 30 min. In case of CPPs the incubation time with fluorescein was 1-h. Samples were collected from both compartments and the concentrations of the marker molecules were determined by a fluorescence multi-well plate reader (Fluostar Optima; excitation wavelength: 485 nm, emission wavelength: 535 nm in the case of fluorescein and excitation wavelength: 584 nm, emission wavelength: 680 nm in the case of Evans-blue labeled albumin). Fluorescein isothiocyanate (FITC)-labelled dextran marker molecules (Table 1) were used at 1 mM concentrations, and fluorescence intensities of collected samples were measured using a Fluorolog FL3-22 (Horiba Jobin Yvon, Paris, France) spectrofluorometer using 492 nm excitation wavelength, 515 nm emission wavelength, and 0.5 s integration time. Drugs were used at 10 μM concentrations and samples were measured by HPLC as described below. The apparent permeability coefficients (Papp) were calculated as described previously. Briefly, cleared volume was calculated from the concentration difference of the tracer in the basal compartments (Δ[C]B) after 30 min and apical compartments at 0 h ([C]A), the volume of the basal compartment (VB; 1.5 mL) and the surface area available for permeability (A; 1.1 cm^2).\n(§3) Analytical measurements were performed on a Merck-Hitachi LaChrom HPLC system equipped with an ultraviolet (UV) and fluorescence detector (Merck, Darmstadt, Germany). All reagents used were of analytical reagent grade. […] In both cases 10μL sample was injected into the chromatographic system.\n(§4) The chromatographic column was maintained at 40 °C and the 5 μL sample was injected onto the column.\n(§5) The column temperature was maintained at 40 °C and a 20 μL sample was injected onto the chromatographic system. […] UV detection was set at 228 nm."}, "EpiAirway model": {"system": "EpiAirway model", "details": "airway epithelial tissue model, by PN159; cited from earlier work"}, "Caco-2 cell layers": {"system": "Caco-2 cell layers", "assay": "Penetration of marker and drug molecules across Caco-2 cell layers (Papp A-B)", "details": "CPPs 100 μM, 1-h treatment", "experimental": "as §2, §3, §4, §5"}, "Klebsiella pneumoniae": {"system": "Klebsiella pneumoniae", "parameters": "method as in PMID 27617798", "details": "cited from earlier work"}}}
{"compound": "CO[C@@]1(NC(=O)Cc2cccs2)C(=O)N2C(C(=O)O)=C(COC(N)=O)CS[C@@H]21", "note": "[Cefoxitin, cefoxitin]", "values": [{"measurement": "MIC", "setting": "[1]", "value": "> 223", "unit": "µM"}, {"measurement": "MIC", "setting": "[2]", "value": "> 223", "unit": "µM"}, {"measurement": "MIC", "setting": "[3]", "value": "> 223", "unit": "µM"}, {"measurement": "MIC", "setting": "[4]", "value": 3.5, "unit": "µM"}, {"measurement": "MIC", "setting": "[5]", "value": 223, "unit": "µM"}, {"measurement": "MIC", "setting": "[6]", "value": 6.9, "unit": "µM"}]}
{"compound": "CNC(C)C1CCC(N)C(OC2C(N)CC(N)C(OC3OCC(C)(O)C(NC)C3O)C2O)O1", "note": "(stereo not drawn) [Gentamicin, gentamicin]", "values": [{"measurement": "MIC", "setting": "[1]", "value": 1.1, "unit": "µM"}, {"measurement": "MIC", "setting": "[2]", "value": 2.3, "unit": "µM"}, {"measurement": "MIC", "setting": "[4]", "value": 0.6, "unit": "µM"}, {"measurement": "MIC", "setting": "[5]", "value": 0.6, "unit": "µM"}, {"measurement": "MIC", "setting": "[6]", "value": 1.1, "unit": "µM"}]}
{"compound": "N=C(N)NCCC[C@H](NC(=O)[C@H](CCCNC(=N)N)NC(=O)[C@H](CCCNC(=N)N)NC(=O)[C@H](CCCNC(=N)N)NC(=O)[C@H](CCCNC(=N)N)NC(=O)[C@H](CCCNC(=N)N)NC(=O)[C@H](CCCNC(=N)N)NC(=O)[C@@H](N)CCCNC(=N)N)C(N)=O", "note": "[R8]", "values": [{"measurement": "Cell impedance (normalized cell index)", "setting": "Caco-2 cells", "value": "decreased the cell impedance"}]}
{"compound": "CN/C(=N/CCSCc1nc[nH]c1C)NC#N", "note": "[cimetidine]", "values": [{"measurement": "Papp A→B at 30 min, 10 μM", "setting": "in vitro; PN159 treated", "value": "34.5 ± 4.5", "unit": "×10⁻⁶ cm/s"}, {"measurement": "Papp A→B at 30 min, 10 μM", "setting": "in vitro; control", "value": "0.9 ± 0.2", "unit": "×10⁻⁶ cm/s"}]}
{"compound": "COc1ccc2c3c1O[C@H]1C[C@@H](O)C=C[C@@]31CCN(C)C2", "note": "[galantamine]", "values": [{"measurement": "Increase of permeability", "setting": "EpiAirway model", "value": "2 to 3", "unit": "fold"}]}
{"compound": "cyclo[CGGFWRRRRGE(εAca)G] (cyclo(CGGFWRRRRGE)-{εAca-Gly}) [φ-peptide]", "values": [{"measurement": "Cell impedance (normalized cell index)", "setting": "Caco-2 cells", "value": "decreased the cell impedance"}, {"measurement": "Permeability for fluorescein marker molecule", "setting": "Caco-2 cell layers", "value": "elevated permeability"}]}
{"compound": "melittin", "values": [{"measurement": "Concentration needed for inhibition of growth", "setting": "Klebsiella pneumoniae", "value": "more than 100 µM"}]}
